Reference: patent US12215100B2, “Anticancer compounds” (Pharma Mar, S.A., priority 2018, dated 2025)

Columns and labels:
Type in all cases: cell-based, human
PSN-1 = test: SRB colorimetric cytotoxicity assay, PSN-1; conditions: Homo sapiens, pancreatic adenocarcinoma
Excerpt: (§1) The aim of this assay is to evaluate the in vitro cytostatic (ability to delay or arrest tumor cell growth) or cytotoxic (ability to kill tumor cells) activity of the samples being tested.
(§2) A colorimetric assay, using sulforhodamine B (SRB) reaction has been adapted to provide a quantitative measurement of cell growth and viability (following the technique described by V. Vichai and K. Kirtikara (2006) Nature Protoc. 1, 1112-1116.)
(§3) This form of assay employs 96-well cell culture microplates. All the cell lines used in this study were obtained from the American Type Culture Collection (ATCC), unless otherwise indicated, and derive from different types of human cancer.
(§4) Cells were maintained in Dulbecco's Modified Eagle Medium (DMEM) (for A549, HT-29 and MDA-MB-231) or RPMI (for PSN-1) supplemented with 10% Fetal Bovine Serum (FBS), 2 mM L-glutamine, 100 U/mL penicillin and 100 U/mL streptomycin at 37° C., 5% CO2 and 98% humidity. For the experiments, cells were harvested from subconfluent cultures using trypsinization and resuspended in fresh medium before counting and plating.
(§5) Cells were seeded in 96 well microtiter plates, at 5×10^3 cells per well in aliquots of 150 μL, and allowed to attach to the plate surface for 18 hours (overnight) in drug free medium. After that, one control (untreated) plate of each cell line was fixed (as described below) and used for time zero reference value. […] After 72 hours treatment, the antitumor effect was measured by using the SRB methodology: Briefly, cells were washed twice with PBS, fixed for 15 min in 1% glutaraldehyde solution at room temperature, rinsed twice in PBS, and stained in 0.4% SRB solution for 30 min at room temperature. Cells were then rinsed several times with 1% acetic acid solution and air-dried at room temperature. SRB was then extracted in 10 mM trizma base solution and the absorbance measured in an automated spectrophotometric plate reader at 490 nm. Effects on cell growth and survival were estimated by applying the NCI algorithm (Boyd M R and Pauli K D. Drug Dev Res. 1995, 34, 91-104).
(§6) Using the mean±SD of triplicates, a dose-response curve was automatically generated using nonlinear regression analysis to a 4-parameter logistic curve. Three reference parameters were calculated (NCI algorithm) by automatic interpolation: GI50=compound concentration that produces 50% cell growth inhibition, as compared to control cultures; TGI=total cell growth inhibition (cytostatic effect), as compared to control cultures, and LC50=compound concentration that produces 50% net cell killing (cytotoxic effect).

HT29 = test: SRB colorimetric cytotoxicity assay, HT29; conditions: Homo sapiens, colorectal adenocarcinoma
Excerpt: as §1, §2, §3, §4, §5, §6

A549 = test: SRB colorimetric cytotoxicity assay, A549; conditions: Homo sapiens, lung carcinoma (NSCLC)
Excerpt: as §1, §2, §3, §4, §5, §6

MDA-MB-231 = test: SRB colorimetric cytotoxicity assay, MDA-MB-231; conditions: Homo sapiens, breast adenocarcinoma
Excerpt: as §1, §2, §3, §4, §5, §6

[1] = HT-29, 72 h, 72 hours treatment
[2] = MDA-MB-231, 72 h, 72 hours treatment

SMILES	GI50 (PSN-1; PSN1, 72 h, 72 hours treatment)	GI50 (HT29; [1])	GI50 (A549; A549, 72 h, 72 hours treatment)	GI50 (MDA-MB-231; [2])	GI50 (PSN-1; PSN1, 72 hours treatment)	GI50 (HT29; HT-29, 72 hours treatment)	GI50 (A549; A549, 72 hours treatment)	GI50 (MDA-MB-231; MDA-MB-231, 72 hours treatment)
C=Cc1cc([C@@H](CCC)NC(=O)[C@]2(C)CSC(/C(C)=N/O)=N2)oc(=O)c1 [Compound 79]	477 nM	397 nM	424 nM	344 nM	–	–	–	–
CCC[C@@H](NC(=O)[C@]1(C)CSC(/C(C)=N/O)=N1)c1cc(O)cc(=O)[nH]1 [Compound 82]	355 nM	491 nM	1640 nM	1120 nM	–	–	–	–
CCC[C@@H](NC(=O)[C@]1(C)CSC(/C(C)=N/O)=N1)c1cc(OCCOCCOCCOCC)cc(=O)o1 [Compound 87]	7010 nM	5500 nM	5690 nM	6820 nM	–	–	–	–
CCC[C@@H](NC(=O)[C@]1(C)CSC(/C(C)=N/O)=N1)c1cc(O)cc(=O)o1 [Compound 88]	18800 nM	11400 nM	20400 nM	21800 nM	–	–	–	–
CCC[C@@H](NC(=O)[C@]1(C)CSC(/C(C)=N/O)=N1)c1cc(OCCCN)cc(=O)o1 [Compound 89]	6360 nM	8950 nM	16500 nM	5890 nM	–	–	–	–
CCC[C@@H](NC(=O)[C@@H]1CSC(/C(C)=N/O)=N1)c1cc(OC)cc(=O)o1 [Compound 92]	953 nM	1280 nM	1550 nM	953 nM	–	–	–	–
C=CCO/N=C(\C)C1=N[C@](C)(C(=O)N[C@H](CCC)c2cc(OC)cc(=O)o2)CS1 [Compound 93]	28.5 nM	23.5 nM	21.4 nM	38 nM	–	–	–	–
C#CCO/N=C(\C)C1=N[C@](C)(C(=O)N[C@H](CCC)c2cc(OC)cc(=O)o2)CS1 [Compound 94]	35.8 nM	22.6 nM	35.8 nM	35.8 nM	–	–	–	–
CCC[C@@H](NC(=O)[C@]1(C)CSC(/C(C)=N/OC(=O)COCCOCCOC)=N1)c1cc(OC)cc(=O)o1 [Compound 95]	33.2 nM	40.6 nM	20.3 nM	44.3 nM	–	–	–	–
CCC[C@@H](NC(=O)[C@]1(C)CSC(/C(C)=N/OCCOCCOCCOCC)=N1)c1cc(OC)cc(=O)o1 [Compound 96]	2220 nM	1510 nM	1770 nM	2950 nM	–	–	–	–
CCC[C@@H](NC(=O)[C@]1(C)CSC(/C(C)=N/OCCCNC(=O)OC(C)(C)C)=N1)c1cc(OC)cc(=O)o1 [Compound 97]	835 nM	594 nM	631 nM	1150 nM	–	–	–	–
CCC[C@@H](NC(=O)[C@]1(C)CSC(/C(C)=N/OCCCN)=N1)c1cc(OC)cc(=O)o1 [Compound 98]	27.4 nM	25.1 nM	22.1 nM	34.2 nM	–	–	–	–
CCC[C@@H](NC(=O)[C@]1(C)CSC(/C(C)=N/N)=N1)c1cc(OC)cc(=O)o1 [Compound 99]	920 nM	447 nM	578 nM	657 nM	–	–	–	–
CCC[C@@H](NC(=O)[C@]1(C)COC(/C(C)=N/O)=N1)c1cc(OC)cc(=O)o1 [Compound 106]	1560 nM	712 nM	1010 nM	876 nM	–	–	–	–
C=CCOc1cc([C@@H](CCC)NC(=O)[C@]2(C)CSC(/C(C)=N/O[C@H]3O[C@H](COC(C)=O)[C@@H](OC(C)=O)[C@H](OC(C)=O)[C@H]3OC(C)=O)=N2)oc(=O)c1 [Compound 107]	61 nM	52.9 nM	52.9 nM	78.6 nM	–	–	–	–
C=CCOc1cc([C@@H](CCC)NC(=O)[C@]2(C)CSC(/C(C)=N/O[C@H]3O[C@@H]4COC(C)(C)O[C@H]4[C@@H]4OC(C)(C)O[C@H]34)=N2)oc(=O)c1 [Compound 110]	56.9 nM	36.9 nM	43.1 nM	78.5 nM	–	–	–	–
C=CCOc1cc([C@@H](CCC)NC(=O)[C@]2(C)CSC(/C(C)=N/O[C@H]3O[C@H](CO)[C@@H](O)[C@@H]4OC(C)(C)O[C@H]34)=N2)oc(=O)c1 [Compound 111]	37.7 nM	24.6 nM	26.2 nM	29.5 nM	–	–	–	–
C=CCOc1cc([C@@H](CCC)NC(=O)[C@]2(C)CSC(/C(C)=N/O[C@H]3O[C@H](CO)[C@@H](O)[C@H](O)[C@@H]3O)=N2)oc(=O)c1 [Compound 112]	1230 nM	1110 nM	4040 nM	2110 nM	–	–	–	–

SMILES	GI50 (PSN-1; PSN1, 72 h, 72 hours treatment)	GI50 (HT29; [1])	GI50 (A549; A549, 72 h, 72 hours treatment)	GI50 (MDA-MB-231; [2])	GI50 (PSN-1; PSN1, 72 hours treatment)	GI50 (HT29; HT-29, 72 hours treatment)	GI50 (A549; A549, 72 hours treatment)	GI50 (MDA-MB-231; MDA-MB-231, 72 hours treatment)
C=CCOc1cc([C@@H](CCC)NC(=O)[C@]2(C)CSC(/C(C)=N/O[Si](c3ccccc3)(c3ccccc3)C(C)(C)C)=N2)oc(=O)c1 [Compound 113]	–	–	–	–	14.7 nM	5.57 nM	15.2 nM	8.36 nM
C=CCOc1cc([C@@H](CCC)NC(=O)[C@]2(C)CSC(/C(C)=N/OCCCCO)=N2)oc(=O)c1 [Compound 115]	13.6 nM	5.84 nM	11.1 nM	11.9 nM	–	–	–	–
CCC[C@@H](NC(=O)[C@]1(C)CSC(/C(C)=N/CCCNC(=O)OC(C)(C)C)=N1)c1cc(OCC2CC2)cc(=O)o1 [Compound 116]	302 nM	249 nM	302 nM	195 nM	–	–	–	–
C=CCOc1cc([C@@H](CCC)NC(=O)[C@]2(C)CSC(C(C)N)=N2)oc(=O)c1 (stereo partly drawn) [Compound 117]	4880 nM	3490 nM	3020 nM	4650 nM	–	–	–	–
CCC[C@@H](NC(=O)[C@]1(C)CSC(C(C)=O)=N1)c1cccc(=O)o1 [Compound 127]	18700 nM	14000 nM	> 29700 nM	8620 nM	–	–	–	–
CCC[C@@H](NC(=O)[C@]1(C)CSC(/C(C)=N/O)=N1)c1cccc(=O)o1 [Compound 128]	88.2 nM	105 nM	91.1 nM	285 nM	–	–	–	–
CCC[C@@H](NC(=O)[C@@]1(C)CSC(C(C)(OCC)OCC)=N1)c1cc(OC)cc(=O)o1 [Compound 129]	5450 nM	3630 nM	6130 nM	3860 nM	–	–	–	–
C=CCOc1cc([C@@H](CCC)NC(=O)[C@@]2(C)CSC(C(C)(OCC)OCC)=N2)oc(=O)c1 [Compound 130]	364 nM	206 nM	214 nM	364 nM	–	–	–	–
CCC[C@@H](NC(=O)[C@@]1(C)CSC(C(C)(OCC)OCC)=N1)c1cc(OCC2CC2)cc(=O)o1 [Compound 131]	312 nM	196 nM	208 nM	333 nM	–	–	–	–
C=CCOc1cc([C@@H](CCC)NC(=O)[C@@]2(C)CSC(C(C)=O)=N2)oc(=O)c1 [Compound 133]	5610 nM	4590 nM	9430 nM	3820 nM	–	–	–	–
CCC[C@@H](NC(=O)[C@@]1(C)CSC(/C(C)=N/O)=N1)c1cc(OC)cc(=O)o1 [Compound 135]	1260 nM	1260 nM	2460 nM	2330 nM	–	–	–	–
C=CCOc1cc([C@@H](CCC)NC(=O)[C@@]2(C)CSC(/C(C)=N/O)=N2)oc(=O)c1 [Compound 136]	81 nM	85.9 nM	71.2 nM	78.5 nM	–	–	–	–
CCC[C@@H](NC(=O)[C@@]1(C)CSC(/C(C)=N/O)=N1)c1cc(OCC2CC2)cc(=O)o1 [Compound 137]	145 nM	109 nM	126 nM	149 nM	–	–	–	–
COc1cc([C@@H](CCC(F)(F)F)NC(=O)[C@]2(C)CSC(/C(C)=N/O)=N2)oc(=O)c1 [Compound 140]	643 nM	344 nM	666 nM	459 nM	–	–	–	–
COc1cc([C@@H](CCC(F)(F)F)NC(=O)[C@]2(C)CSC(/C(C)=N\O)=N2)oc(=O)c1 [Compound 140a]	2760 nM	1520 nM	2530 nM	2270 nM	–	–	–	–
C#CCOc1cc([C@@H](CCC)NC(=O)[C@]2(C)CSC(C(C)=NO)=N2)oc(=O)c1CC#C [Compound 141]	338 nM	178 nM	225 nM	248 nM	–	–	–	–
C=CCOc1cc([C@@H](CCC)NC(=O)[C@]2(C)CSC(/C(C)=N/OCCOCCOCCOCC)=N2)oc(=O)c1 [Compound 144]	125 nM	65.2 nM	72.2 nM	162 nM	–	–	–	–
CCC[C@@H](NC(=O)[C@]1(C)CSC(/C(C)=N/OCCOCCOCCOCC)=N1)c1cc(OCC2CC2)cc(=O)o1 [Compound 145]	112 nM	61.9 nM	48.1 nM	122 nM	–	–	–	–
